Data as given in patent publication US8802705B2, “Pharmaceutical containing PPAR delta agonist” (Senju Pharmaceutical Co., Ltd., priority 2007, dated 2014).

Legend:
Format in all cases: cell-based
[1] = system: monkey meibomian gland epithelial cells; experiment: Effect on cell number increase in meibomian gland epithelial cells (Experimental Example 3, Cell Counting Kit-8); conditions: medium renewed every 48 hr (3 x 48 hr), relative to non-addition group = 100%, mean ± SD, N = 5 or 10
From the text: An eyelid of monkey isolated and stored in D-PBS was transferred to a clean bench, and cell preparation was aseptically performed as follows.
The isolated eyelid was immersed in 80% ethanol for 30 sec, washed three times with D-PBS added with 1% penicillin-streptomycin (Invitrogen), and transferred to a minimum essential medium (MEM; Invitrogen). The adipose tissue and muscular tissue surrounding the meibomian glandular tissue of the eyelid were removed under a stereomicroscope. They were transferred to MEM containing 0.3 U/mL collagenase A (Roche Diagnostics) and 2.4 U/mL dispase II (Roche Diagnostics), and shaken at 37° C. for 4 hr and at 4° C. overnight. The enzyme-treated tissue was set under a stereomicroscope, and the eyelash and eyelid connective tissue were removed to isolate the meibomian glandular tissue. Trypsin-EDTA (4 mL, Invitrogen) was added to the isolated glandular tissue, and the mixture was incubated at 37° C. for 10 min. After incubation, MEM (5 mL) containing 10% FBS (Invitrogen) was added thereto to stop the enzyme reaction, and the tissue constituting cells were dispersed by repeated suction and discharge of the mixture 5 times using an injection syringe equipped with a 21 G injection needle. The cell dispersion was passed through 100 μm and 40 μm nylon filters (Cell Strainer; Falcon), and cell mass and the like contained therein which could not be treated with the enzyme were removed. The cell suspension passed through the filters was collected in a centrifuge tube (50 mL) and centrifuged at room temperature, 1,500 rpm for 5 min. To the cell layers containing the object cells obtained by the centrifugation was added 80 μL of D-PBS containing 0.5% bovine serum albumin (BSA; Sigma-Aldrich), and the cells were sufficiently suspended therein. Anti-Fibroblast Microbeads (Militenyi Biotec, 20 μL) was added thereto, and the mixture was left standing at room temperature for 30 min. After completion of the reaction with an antibody, 2 mL of D-PBS containing 0.5% BSA was added thereto, and the mixture was centrifuged again at room temperature, 1,500 rpm for 5 min. To the cell layers containing the object cells obtained by the centrifugation was added 1 mL of D-PBS containing 0.5% BSA, and the cells were sufficiently suspended therein. The suspension was added dropwise to LD column (Militenyi Biotec) equilibrated in advance with a column washing solution (D-PBS containing 2 mM EDTA (DOJINDO LABORATORIES) and 0.5% BSA). Then, 2 mL of the column washing solution was added dropwise to the LD column. […] The cells collected in the centrifuge tube were centrifuged at room temperature, 1,500 rpm for 5 min, and the supernatant was removed. The sediment was suspended in Defined Keratinocyte Serum Free Medium (5 mL), centrifuged at room temperature, 1,500 rpm for 5 min, and removed the supernatant. Again, the residue was suspended in DK-SFM (3 mL), centrifuged at room temperature and 1,500 rpm for 5 min, and the supernatant was removed. The cells were suspended in DK-SFM (2 mL), and seeded on a 6 well multi-well plate for cell culture, which had been treated with collagen. The seeded cells were cultured in Defined keratinocyte-Serum Free Medium (DK-SFM; Invitrogen, attached Supplement was added as instructed in the preparation protocol), cultured in an incubator (SANYO) set to 37° C., 5% CO2, 95% air, 100% humidity, and the culture medium was exchanged with a new one every 48 hr until the cells became subconfluent.
As a test substance, compound A, [4-[3-[2-(4-trifluoromethyl)phenyl-4-isopropyl-5-thiazolyl]propionyl]-2-methylphenoxy]acetic acid (hereinafter to be referred to as compound B) or [4-[3-[2-(2-hydroxy-4-chlorophenyl)-5-isopropyl-4-oxazolyl]propionyl]-2-methylphenoxy]acetic acid (hereinafter to be referred to as compound C) was used. […]

[2] = system: Normal human corneal epithelial cells; experiment: Effect on increase of cell number of normal human corneal epithelial cells (Experimental Example 4, Cell Counting Kit-8); conditions: for effect on cell number of normal human corneal epithelial cells (in words): 0.01-1 μM, conclusion of the test; for cell number increase rate: relative to non-addition group = 100%, mean ± SD, N = 4
Procedure: (§1) Normal human corneal epithelial cells (KURABO) were used.
As a test substance, compound B or compound C was used. Compound B and compound C were each dissolved in ethanol (Wako Pure Chemical Industries, Ltd.) to a concentration 200-fold of the final concentration in a culture medium, and the solution was stored at −80° C. until immediately before use.
As a cell culture medium for consideration of the cell number-increasing effect by compound B and compound C, a culture medium (basal medium) obtained by adding insulin, hydrocortisone and transferrin contained in HCGS growth additive set (KURABO) to EpiLife (KURABO) was used.
Normal human corneal epithelial cells cryopreserved in liquid nitrogen were thawed and the cell number was counted. The total amount thereof was transferred to EpiLife added with all of the HCGS growth additive set (insulin, epidermal growth factor mEGF derived from mouse, hydrocortisone, transferrin, bovine brain hypophysis extract) (4 mL, complete medium), and suspended well therein. The cell suspension was seeded on a fibronectin-coated 24 well plate (Becton Dickinson) at a cell number of 2×10^4 cells/500 μL/well (1×10^4 cells/cm^2 since bottom area was 2 cm^2). After completion of cell seeding, the culture plate was incubated in an incubator set to 37° C., 5% CO2, 95% air and 100% humidity for 24 hr, and the culture medium was changed to 400 μL of the basal medium (EpiLife added with insulin, hydrocortisone and transferrin from HCGS growth additives). After 24 hr thereafter, the culture medium was changed to the following culture medium (each 400 μL). • [1] basal medium alone (non-addition group) • [2] basal medium+mEGF (final concentration: 1 ng/mL; positive control group) • [3] basal medium+compound B (final concentration: 0.01 μM, 0.1 μM, 1 μM; compound B addition group) • [4] basal medium+compound C (final concentration: 0.01 μM, 0.1 μM, 1 μM; compound C addition group)
(§2) Ethanol (5 μL) was added to 1 mL each of culture media and [2] to uniformly set the ethanol concentration of all culture media to 0.5%.
(§3) After 24 hr from the start of the stimulation with compound B or compound C, the culture supernatant was removed from each well, and a basal medium added with 10% Cell Counting Kit-8 (DOJINDO) was dispensed to each well by 200 μL. After dispensing, the culture plate was transferred to an incubator set to 37° C., 5% CO2, 95% air and 100% humidity and incubated for 2 hr. The supernatant (100 μL) was transferred to a 96 well culture plate for tissue culture (Corning), and the absorbance of each well at 450 nm was measured with a microplate reader (Dainippon Sumitomo Pharma Co., Ltd.), and used as an index of cell number increase.
(§4) The values of the positive control group and the compound B or compound C addition group were calculated based on the average absorbance of the non-addition group as 100%, and the non-addition group was compared with the compound B or compound C addition group and positive control group according to the Dunnett multiple comparison test (one-tailed). A critical value of less than 5% as a result of the test was judged as significant.

[3] = system: Normal human corneal epithelial cells; experiment: Effect on increase of cell number of normal human corneal epithelial cells (Experimental Example 1, Cell Counting Kit-8); conditions: positive control, final concentration 1 ng/mL, 24 hr, relative to non-addition group = 100%, mean ± SD
Procedure: as §1
As a test substance, [3-[2-[4-isopropyl-2-(4-trifluoromethyl)phenyl-5-thiazolyl]ethyl]-5-methyl-1,2-benzisoxazol-6-yl]oxyacetic acid (hereinafter to be referred to as compound A) was used. Compound A was dissolved in ethanol (Wako Pure Chemical Industries, Ltd.) to a concentration 200-fold of the final concentration in a culture medium, and the solution was stored at −80° C. until immediately before use.
As a cell culture medium for consideration of the cell number-increasing effect by compound A, a culture medium (basal medium) obtained by adding insulin, hydrocortisone and transferrin contained in HCGS growth additive set (KURABO) to EpiLife (KURABO) was used.
Normal human corneal epithelial cells cryopreserved in liquid nitrogen were thawed and the cell number was counted. The total amount thereof was transferred to EpiLife added with all of the HCGS growth additive set (insulin, epidermal growth factor mEGF derived from mouse, hydrocortisone, transferrin, bovine brain hypophysis extract) (4 mL, complete medium), and suspended well therein. The cell suspension was seeded on a fibronectin-coated 24 well plate (Becton Dickinson) at a cell number of 2×10^4 cells/500 μL/well (1×10^4 cells/cm^2 since bottom area was 2 cm^2).
After completion of cell seeding, the culture plate was incubated in an incubator set to 37° C., 5% CO2, 95% air and 100% humidity for 24 hr, and the culture medium was changed to 400 μL of the basal medium (EpiLife added with insulin, hydrocortisone and transferrin from HCGS growth additives).
After 24 hr thereafter, the culture medium was changed to the following culture medium (each 400 μL). • [1] basal medium alone (non-addition group) • [2] basal medium+mEGF (final concentration: 1 ng/mL; positive control group) • [3] basal medium+compound A (final concentration: 0.1 nM, 1 nM, 0.01 μM, 0.1 μM; compound A addition group)
as §2
as §3, with “A,” for “B or compound C,”
as §4, with “A” for “B or compound C”

| Molecule | cell number increase ratio ([1]; 10^−6 M) [%] | cell number increase ratio ([1]; 10^−7 M) [%] | cell number increase ratio ([1]; 10^−8 M) [%] | effect on cell number of normal human corneal epithelial cells (in words) [2] | cell number increase rate ([2]; 10^−6 M, 24 hr stimulation) [%] | cell number increase rate ([2]; 10^−7 M, 24 hr stimulation) [%] | cell number increase rate ([2]; 10^−8 M, 24 hr stimulation) [%] | cell number increase rate ([2]; positive control, final concentration 1 ng/mL, 24 hr) [%] | cell number increase rate [3] [%] |
| --- | --- | --- | --- | --- | --- | --- | --- | --- | --- |
| Cc1cc(C(=O)CCc2sc(-c3ccc(C(F)(F)F)cc3)nc2C(C)C)ccc1OCC(=O)O [compound B, [4-[3-[2-(4-trifluoromethyl)phenyl-4-isopropyl-5-thiazolyl]propionyl]-2-methylphenoxy]acetic acid] | 158.8 ± 15.2 | 174.4 ± 8.9 | 155.0 ± 28.0 | increase the cell number of normal human corneal epithelial cells | 254.3 ± 11.7 | 256.4 ± 11.0 | 252.4 ± 34.7 |  |  |
| Cc1cc(C(=O)CCc2nc(-c3ccc(Cl)cc3O)oc2C(C)C)ccc1OCC(=O)O [compound C, [4-[3-[2-(2-hydroxy-4-chlorophenyl)-5-isopropyl-4-oxazolyl]propionyl]-2-methylphenoxy]acetic acid] | 179.4 ± 7.5 | 175.2 ± 7.8 | 155.0 ± 11.6 | increase the cell number of normal human corneal epithelial cells | 260.2 ± 2.5 | 247.5 ± 14.1 | 243.3 ± 6.6 |  |  |
| mEGF: epidermal growth factor mEGF derived from mouse, from HCGS growth additive set (KURABO); positive control (NSYPGCPSSYDGYCLNGGVCMHIESLDSYTCNCVIGYSGDRCQTRDLRWWELR; UniProt P01132 977-1029, looked up) [reference compound] |  |  |  |  |  |  |  | 232.8 ± 22.5 | 147.5 ± 47.2 |
